Data as given in article PMC10687260, “1,3-Diphenylureido hydroxamate as a promising scaffold for generation of potent antimalarial histone deacetylase inhibitors” (Scientific Reports, 2023).

What was measured:
[1] = system: HepG2 cells; assay: Cytotoxicity in human HepG2 cells (WST-1); format: cell-based; details: Homo sapiens, HepG2; 48 h, WST-1; read-out: IC50 HepG2
Description: Cytotoxicity in human HepG2 cells.[47] […] Cytotoxic effects of compounds were assessed using the cell proliferation reagent WST-1 (Roche; CELLPRO-RO) in a 96-well plate-based screening assay. HepG2 cells were seeded at 10^4 cells/well (100 μL) in 96-well flat-bottom plates (Sarstedt) the night before the experiment to allow attachment of cells. The next day, two-fold serial dilutions of compounds were prepared in fresh medium in an extra plate, and the medium of cells was replaced by the medium containing the compound dilutions. Non-treated cells (max. proliferation), cells treated with the maximal solvent concentration (DMSO; solvent control), and medium with the maximal compound concentration (native absorbance) used as controls. […] Subsequently, 10 μL WST-1 was added to each well and plates were incubated for additional 4 h under standard conditions. WST-1 is a tetrazolium salt and is metabolised by the mitochondrial succinate-tetrazolium-reductase system of living cells and forms formazan, whose absorbance was measured at 450 nm. Absorbance at 630 nm was assessed to check for protein and precipitation background. Both measurements were acquired via the CLARIOstar (V5.20) and MARS software, manually scaled to 0–100%, and plotted with GraphPad Prism (version 9.5.2 for Windows, GraphPad Software, La Jolla California USA).

[2] = system: P. falciparum 3D7; assay: Antiplasmodial SYBR Green I proliferation assay, P. falciparum 3D7; format: cell-based, Plasmodium falciparum; details: Plasmodium falciparum, 3D7, 96 h, 96 h; values in brackets 95% confidence intervals; read-out: IC50 Pf3D7
Source text: Antiplasmodial activity against P. falciparum 3D7 (A, C and E) and P. falciparum Dd2 (B, D, F). […] Curves were plotted using non-linear regression based on means from three independent experiments measured in triplicate. Error bars indicate standard deviation, whose values are provided in the respective table.
Plasmodium falciparum culture and antiplasmodial activity. […] Development, parasitaemia, and morphology of parasites were monitored by light microscopy of thin blood smears stained according to the Romanowsky method (Panótico Rápido staining kit; Laborclin, Pinhais, Paraná, Brazil). […] Fresh 0^+ blood was generously provided by “Hospital Novo Atibaia” (Atibaia, SP, Brazil), and approved by the ethics committee at ICB-USP. The antiplasmodial effect of all compounds was validated against P. falciparum 3D7 strain conducting SYBR Green I (Invitrogen) drug assays as previously reported[30],[46] as a modification of the original procedure. […] Parasite proliferation was measured by the DNA load via fluorescence, using 100 μL of a lysis buffer with SYBR Green I (0.02% v/v) and incubated for 1 h at room temperature in the dark. […] Focal and gain adjustment was performed using the non-treated controls (highest expected fluorescence signal). Data was acquired via the CLARIOstar (V5.20) and MARS software, manually scaled to 0–100%, and plotted using GraphPad Prism (v9.5.2 for Windows, GraphPad Software, La Jolla California USA, www.graphpad.com). Non-treated parasites, the highest solvent concentration on parasites, CQ on parasites, and the highest drug concentration in the medium were used as controls for maximal growth, solvent control, positive biological control, and native drug fluorescence, respectively.

[3] = biological target: T1, human HDAC1 (Homo sapiens, UniProt Q13547); assay: In vitro HDAC enzymatic assay, HDAC1; format: biochemical; details: mean ± SD
T1 construct: purchased ENZO Life Sciences AG (Lausen, CH)
Description: (§1) In vitro HDAC enzymatic assays. Recombinant human HDAC1 and HDAC6 were purchased from ENZO Life Sciences AG (Lausen, CH) whereas HDAC8 was produced as described before. In vitro testing of the inhibitors in an enzymatic assay was carried out as described in previous publications[32],[33]. For HDAC1 a fluorogenic peptide derived from p53 (Ac-RHKK(Acetyl)-AMC) was used. For HDAC6, the substrate (Abz-SRGGK(thio-TFA)FFRR-NH2) was used as described before.

[4] = system: Jurkat; set-up: method as in PMID 33668008; details: Fig. 1A; cited from earlier work
[5] = biological target: T2, HDAC8 (Homo sapiens, UniProt Q9BY41); assay: In vitro HDAC enzymatic assay, HDAC8; format: biochemical; details: mean ± SD
T2 construct: made in house
T2 sequence (Q9BY41 1-377): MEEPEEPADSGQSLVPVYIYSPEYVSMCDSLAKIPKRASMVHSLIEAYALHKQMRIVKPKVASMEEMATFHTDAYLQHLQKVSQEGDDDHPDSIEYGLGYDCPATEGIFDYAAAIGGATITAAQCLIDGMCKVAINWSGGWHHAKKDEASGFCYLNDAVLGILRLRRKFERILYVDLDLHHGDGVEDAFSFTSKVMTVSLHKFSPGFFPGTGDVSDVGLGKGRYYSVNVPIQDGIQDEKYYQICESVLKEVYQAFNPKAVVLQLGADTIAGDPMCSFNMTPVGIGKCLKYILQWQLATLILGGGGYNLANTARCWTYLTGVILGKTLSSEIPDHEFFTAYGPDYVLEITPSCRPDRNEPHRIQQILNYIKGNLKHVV
Description: as §1

[6] = system: Namalwa; set-up: method as in PMID 33668008; details: Fig. 1A; cited from earlier work
[7] = biological target: T3, human HDAC6 (Homo sapiens, UniProt Q9UBN7); assay: In vitro HDAC enzymatic assay, HDAC6; format: biochemical; details: for IC50: mean ± SD; for HDAC1/6 SI: ratio HsHDAC1 IC50/HsHDAC6 IC50
T3 construct: purchased ENZO Life Sciences AG (Lausen, CH)
T3 sequence (Q9UBN7 1-1215): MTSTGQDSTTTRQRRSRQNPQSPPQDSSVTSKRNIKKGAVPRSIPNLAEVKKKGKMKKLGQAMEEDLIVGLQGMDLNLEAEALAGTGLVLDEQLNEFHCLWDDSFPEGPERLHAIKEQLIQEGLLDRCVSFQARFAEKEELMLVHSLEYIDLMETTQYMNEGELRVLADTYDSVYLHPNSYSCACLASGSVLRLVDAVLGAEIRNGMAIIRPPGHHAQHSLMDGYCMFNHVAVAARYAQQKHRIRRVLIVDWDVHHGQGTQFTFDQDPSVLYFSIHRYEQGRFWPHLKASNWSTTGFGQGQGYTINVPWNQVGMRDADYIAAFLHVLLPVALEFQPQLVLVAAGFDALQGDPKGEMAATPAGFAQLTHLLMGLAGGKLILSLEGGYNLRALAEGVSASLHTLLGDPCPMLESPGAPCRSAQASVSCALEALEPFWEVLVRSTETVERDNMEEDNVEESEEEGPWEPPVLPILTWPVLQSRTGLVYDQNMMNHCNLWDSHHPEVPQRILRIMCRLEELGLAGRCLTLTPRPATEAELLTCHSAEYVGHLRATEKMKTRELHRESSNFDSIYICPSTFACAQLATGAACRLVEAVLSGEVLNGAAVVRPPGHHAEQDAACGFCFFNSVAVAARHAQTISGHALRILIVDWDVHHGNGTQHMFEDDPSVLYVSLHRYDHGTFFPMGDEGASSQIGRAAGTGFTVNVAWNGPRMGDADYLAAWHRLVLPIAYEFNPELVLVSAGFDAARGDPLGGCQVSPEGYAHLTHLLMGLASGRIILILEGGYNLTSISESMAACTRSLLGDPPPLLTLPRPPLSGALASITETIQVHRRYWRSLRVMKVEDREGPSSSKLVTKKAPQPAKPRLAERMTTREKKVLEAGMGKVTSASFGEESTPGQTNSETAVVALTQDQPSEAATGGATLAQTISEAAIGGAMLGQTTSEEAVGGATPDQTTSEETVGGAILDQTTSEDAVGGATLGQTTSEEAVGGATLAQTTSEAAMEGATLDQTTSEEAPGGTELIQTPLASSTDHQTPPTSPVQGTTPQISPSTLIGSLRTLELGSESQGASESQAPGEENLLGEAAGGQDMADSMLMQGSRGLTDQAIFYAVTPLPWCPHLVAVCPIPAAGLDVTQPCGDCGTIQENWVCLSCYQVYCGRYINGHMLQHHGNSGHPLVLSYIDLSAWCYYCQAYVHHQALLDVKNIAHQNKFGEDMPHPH
Description: as §1

[8] = system: P. falciparum culture; set-up: method as in PMID 33046062; details: cited from earlier work
[9] = set-up: method as in PMID 33046062; details: cited from earlier work
[10] = biological target: CYP450 3A4 (Homo sapiens, UniProt P08684); assay: CYP450 inhibition in human liver microsomes, 3A4
Description: DMPK evaluation. […] At 0, 5, 10, 20, 40, and 60 min time points, aliquots were removed and acetonitrile was added to quench the reactions and precipitate the proteins. […] After a 10 min incubation, the reaction was terminated and the per cent inhibition was determined.

[11] = biological target: T4, CYP450 2C9 (Homo sapiens, UniProt P11712); assay: CYP450 inhibition in human liver microsomes, 2C9; format: in vitro ADME; details: 10 µM
T4 construct: 10 μM compound was incubated with human liver microsomes and selective marker substrates; from tissue; host or cells: human liver microsomes

[12] = biological target: T5, CYP450 2D6 (Homo sapiens, UniProt P10635); assay: CYP450 inhibition in human liver microsomes, 2D6; format: in vitro ADME; details: 10 µM
T5 construct: 10 μM compound was incubated with human liver microsomes and selective marker substrates; from tissue; host or cells: human liver microsomes

[13] = biological target: T6, CYP1A2 (Homo sapiens, UniProt P05177); assay: CYP450 inhibition in human liver microsomes, 1A2; format: in vitro ADME; details: 10 µM
T6 construct: 10 μM compound was incubated with human liver microsomes and selective marker substrates; from tissue; host or cells: human liver microsomes
T6 sequence (P05177 1-516): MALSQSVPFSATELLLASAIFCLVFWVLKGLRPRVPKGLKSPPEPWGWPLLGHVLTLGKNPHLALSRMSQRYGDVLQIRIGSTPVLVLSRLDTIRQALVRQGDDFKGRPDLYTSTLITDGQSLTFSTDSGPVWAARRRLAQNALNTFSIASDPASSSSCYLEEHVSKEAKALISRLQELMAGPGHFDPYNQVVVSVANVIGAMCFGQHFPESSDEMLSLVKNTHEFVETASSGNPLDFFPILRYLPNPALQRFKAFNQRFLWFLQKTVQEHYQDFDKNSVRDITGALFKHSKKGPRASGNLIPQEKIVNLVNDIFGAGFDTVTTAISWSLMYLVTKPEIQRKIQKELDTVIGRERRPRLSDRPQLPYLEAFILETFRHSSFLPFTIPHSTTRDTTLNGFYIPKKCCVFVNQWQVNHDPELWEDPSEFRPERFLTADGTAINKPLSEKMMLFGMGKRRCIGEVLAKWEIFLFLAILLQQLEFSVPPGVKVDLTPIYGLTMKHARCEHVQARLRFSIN

T1 sequence (Q13547 whole entry): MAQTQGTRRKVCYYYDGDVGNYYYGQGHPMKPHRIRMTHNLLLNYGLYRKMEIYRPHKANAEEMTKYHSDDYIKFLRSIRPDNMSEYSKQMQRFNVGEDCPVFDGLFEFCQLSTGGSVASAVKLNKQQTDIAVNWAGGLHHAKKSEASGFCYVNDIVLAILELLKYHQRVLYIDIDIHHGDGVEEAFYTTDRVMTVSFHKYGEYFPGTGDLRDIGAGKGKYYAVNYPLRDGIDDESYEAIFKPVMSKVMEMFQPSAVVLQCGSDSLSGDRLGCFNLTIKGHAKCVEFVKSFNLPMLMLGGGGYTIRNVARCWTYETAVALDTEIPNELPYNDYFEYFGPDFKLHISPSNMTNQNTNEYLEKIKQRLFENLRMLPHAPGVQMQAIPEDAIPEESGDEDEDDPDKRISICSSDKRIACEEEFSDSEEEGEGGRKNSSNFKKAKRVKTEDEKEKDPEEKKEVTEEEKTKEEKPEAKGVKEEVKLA
T5 sequence (P10635 whole entry): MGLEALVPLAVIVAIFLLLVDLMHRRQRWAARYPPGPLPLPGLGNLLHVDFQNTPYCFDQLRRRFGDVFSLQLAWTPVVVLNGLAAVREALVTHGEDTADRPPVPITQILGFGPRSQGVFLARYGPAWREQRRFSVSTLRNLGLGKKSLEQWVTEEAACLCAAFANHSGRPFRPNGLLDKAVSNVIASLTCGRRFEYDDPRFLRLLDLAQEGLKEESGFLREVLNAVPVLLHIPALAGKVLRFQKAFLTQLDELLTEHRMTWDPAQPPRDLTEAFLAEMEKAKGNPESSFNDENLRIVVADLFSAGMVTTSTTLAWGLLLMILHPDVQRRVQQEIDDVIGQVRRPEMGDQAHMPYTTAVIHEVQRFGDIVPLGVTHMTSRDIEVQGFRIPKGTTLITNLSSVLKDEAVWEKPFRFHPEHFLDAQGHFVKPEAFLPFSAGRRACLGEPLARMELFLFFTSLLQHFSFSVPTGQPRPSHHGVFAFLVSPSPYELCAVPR
T4 sequence (P11712 whole entry): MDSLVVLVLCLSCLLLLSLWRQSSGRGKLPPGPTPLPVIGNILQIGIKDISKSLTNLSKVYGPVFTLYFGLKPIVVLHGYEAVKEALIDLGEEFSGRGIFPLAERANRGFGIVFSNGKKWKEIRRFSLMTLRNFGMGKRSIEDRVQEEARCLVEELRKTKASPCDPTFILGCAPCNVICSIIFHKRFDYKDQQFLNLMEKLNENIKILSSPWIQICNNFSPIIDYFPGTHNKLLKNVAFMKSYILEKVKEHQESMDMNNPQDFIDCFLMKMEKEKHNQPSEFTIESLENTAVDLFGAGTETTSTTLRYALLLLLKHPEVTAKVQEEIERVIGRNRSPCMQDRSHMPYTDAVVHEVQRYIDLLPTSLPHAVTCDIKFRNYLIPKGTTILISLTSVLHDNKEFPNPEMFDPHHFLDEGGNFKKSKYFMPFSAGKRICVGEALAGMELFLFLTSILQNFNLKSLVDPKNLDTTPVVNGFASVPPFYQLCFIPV
Sequence of CYP450 3A4 (P08684 whole entry): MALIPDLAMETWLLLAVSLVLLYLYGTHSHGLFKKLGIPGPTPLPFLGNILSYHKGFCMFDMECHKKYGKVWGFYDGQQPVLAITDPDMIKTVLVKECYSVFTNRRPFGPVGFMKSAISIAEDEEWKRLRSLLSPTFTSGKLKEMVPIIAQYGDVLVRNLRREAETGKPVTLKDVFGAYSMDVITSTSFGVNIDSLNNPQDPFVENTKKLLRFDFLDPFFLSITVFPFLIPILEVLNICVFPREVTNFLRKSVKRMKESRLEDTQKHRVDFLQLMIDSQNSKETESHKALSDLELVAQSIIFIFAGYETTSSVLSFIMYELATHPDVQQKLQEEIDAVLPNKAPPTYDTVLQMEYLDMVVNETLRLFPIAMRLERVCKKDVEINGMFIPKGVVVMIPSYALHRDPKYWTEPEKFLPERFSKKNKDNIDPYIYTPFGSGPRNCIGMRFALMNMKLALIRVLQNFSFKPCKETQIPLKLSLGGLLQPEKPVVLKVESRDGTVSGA

**Q.** Which IC50 [1] does the source give for O=C(/C=C/c1ccc(NC(=O)Nc2ccccc2)cc1)NO [Compound 6a, (E)-N-hydroxy-3-(4-(3-phenylureido)phenyl)acrylamide] here?
**A.** 22.9 µM

**Q.** What about the IC50 [2] of the same compound?
**A.** 1.72 µM

**Q.** And the IC50 [3]?
**A.** 1.35 ± 0.0642 µM

**Q.** And the IC50 [4]?
**A.** 0.16 µM

**Q.** And the melting point?
**A.** 202 to 204 °C

**Q.** What about the IC50 [5] of the same compound?
**A.** 0.0951 ± 0.0046 µM

**Q.** What about the IC50 [6] of the same compound?
**A.** 0.3 µM

**Q.** And the IC50 [7]?
**A.** 0.0124 ± 0.0007 µM

**Q.** What about the “HDAC1/6 SI” value [7] of the same compound?
**A.** 109

**Q.** With O=C(CCc1ccc(NC(=O)Nc2ccccc2)cc1)NO [Compound 7a, N-hydroxy-3-(4-(3-phenylureido)phenyl)propanamide] as the compound, how does the IC50 [1] read?
**A.** > 50 µM

**Q.** What about the IC50 [2] of the same compound?
**A.** 4.57 µM

**Q.** What about the IC50 [3] of the same compound?
**A.** 4.89 ± 0.21 µM

**Q.** What about the IC50 [4] of the same compound?
**A.** 1.59 µM

**Q.** And the melting point?
**A.** 304 °C (dec.)

**Q.** What about the IC50 [5] of the same compound?
**A.** 0.462 ± 0.0276 µM

**Q.** What about the IC50 [6] of the same compound?
**A.** 0.78 µM

**Q.** What about the IC50 [7] of the same compound?
**A.** 0.152 ± 0.0116 µM

**Q.** What about the “HDAC1/6 SI” value [7] of the same compound?
**A.** 32

**Q.** Which results are given for Cl.O=C(NO)c1ccc(Cn2cc(-c3ccc(CN4CCCC4)cc3)nn2)cc1 [FNDR-20123]?
**A.** IC50 against P. falciparum culture [8]: low nanomolar range; Half-life t1/2 [9]: 2 to 9.21 h

**Q.** With Nc1ccc(S(=O)(=O)Nc2ccnn2-c2ccccc2)cc1 [Sulfaphenazole, reference compound] as the compound, how does the “CYP450% inhibition @ 10 µM 3A4” value [10] read?
**A.** * (Inhibition < 10%)

**Q.** And the “CYP450% inhibition @ 10 µM 2C9” value [11]?
**A.** 94%

**Q.** And the “CYP450% inhibition @ 10 µM 2D6” value [12]?
**A.** * (Inhibition < 10%)

**Q.** What about the “CYP450% inhibition @ 10 µM 1A2” value [13] of the same compound?
**A.** * (Inhibition < 10%)
